Peptide text beside a SMILES is read from it. * marks the point of attachment. Palmitoyl = CCCCCCCCCCCCCCCC(=O)*
Legend:
Assay type in all cases: cell-based
[1] = target: T1, hUT (Homo sapiens, UniProt Q9UKP6); assay: G13 activation, BRET biosensor, HEK 293-hUT cells; design: expressed in transfected cells; conditions: for EC50: HEK 293-hUT, BRET, mean ± SEM, n = 3–5, read-out: G13 activation pEC50 (converted)
T1 sequence (Q9UKP6 1-389): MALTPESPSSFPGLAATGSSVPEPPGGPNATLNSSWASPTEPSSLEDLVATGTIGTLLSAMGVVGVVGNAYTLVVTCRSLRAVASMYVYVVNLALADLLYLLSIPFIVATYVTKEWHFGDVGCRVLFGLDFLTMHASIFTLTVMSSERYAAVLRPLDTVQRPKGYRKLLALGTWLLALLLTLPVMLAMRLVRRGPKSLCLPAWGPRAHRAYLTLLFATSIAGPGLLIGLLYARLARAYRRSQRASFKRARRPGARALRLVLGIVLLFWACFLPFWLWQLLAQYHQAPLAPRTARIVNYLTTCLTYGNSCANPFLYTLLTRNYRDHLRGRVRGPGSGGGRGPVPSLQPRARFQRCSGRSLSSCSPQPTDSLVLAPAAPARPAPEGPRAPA
Description: (§1) Figure 6 Signaling signature of hUT-pepducins following hUT receptor activation. […] Each curve represents mean ± SEM of at least three independent concentration-response experiments performed in triplicate.
(§2) HEK 293-hUT cells were grown in DMEM culture media supplemented with 10% foetal bovine serum, HEPES, sodium pyruvate, and G418 (200 μg mL^−1). Passages were performed when cells reached 80% of confluency. Cells were initially plated in 96-well plates at a density of 10,000 cells/well. The following day, the medium is replaced with DMEM culture media supplemented with 2.5% foetal bovine serum (FBS), and 12 h later, cells were transiently transfected with 25 ng/well of a Gq-polycistronic, 25 ng/well of a G12-polycistronic BRET sensor, 25 ng/well of a G13-polycistronic BRET sensor, 2.5 ng/well pIRESB RLucII-ERK-NLS-GFP BRET sensor, 2.5 ng β-arrestin 1-polycistronic BRET sensor, or 2.5 ng β-arrestin 2-polycistronic BRET sensor using Lipofectamine2000 at a ratio of 3:1 (Lipofectamine/plasmid DNA) in serum-free Opti-MEM ([44], [81]). Sixteen hours posttransfection, medium was replaced with DMEM supplemented with 10% FBS, HEPES, sodium pyruvate and G418 (200 μg mL^−1) and cell growth was resumed for another 16 h. Cells were washed with 150 μl PBS solution supplemented with 0.1% of glucose and then incubated with 80 μl of this solution for 2 h. Then, to evaluate Gq and G12 activation, 10 μl of a 1/20 dilution (diluted before use) of coelenterazine 400A (stock at 1 mM in ethanol) in Kreb's buffer and 10 μl of the 10× appropriate concentration of peptide were added, and the luminescence was evaluated with an Infinite M1000 PRO. […] Readings were performed after 5 min using an Infinite M1000 PRO. Filters were set at 410 nm and 515 nm for detecting the Renilla luciferase II (RlucII, donor) and green fluorescent protein 10 (GFP10, acceptor) light emission, respectively. BRET ratio was determined by calculating the ratio of the light emitted by GFP10 over the light emitted by the RlucII.

[2] = target: T1, hUT; assay: β-arrestin 1 conformational change, BRET biosensor, HEK 293-hUT cells; design: expressed in transfected cells; conditions: for Emax: percentage of the activation induced by hUII (10^−6 M), n = 3–5
Description: as §1, §2

[3] = target: T1, hUT; assay: ERK1/2 phosphorylation, western blot, HEK 293-hUT cells; design: expressed in transfected cells; host or cells: CHO-K1 cells stably expressing hUT (gift from H. Vaudry and C. Dubessy, University of Rouen); conditions: for effect of YM254890 (Gq inhibitor) on ERK1/2 phosphorylation induced by the peptide: YM254890 100 nM 1 h pretreatment, hUT-Pep2 at 5 min, [Trp^1, Leu^2]hUT-Pep3 at 5 and 10 min, p < 0.05; for effect of YM254890 (Gq inhibitor) on ERK1/2 phosphorylation induced by the peptide / time of maximal ERK1/2 phosphorylation (for [Trp^1, Leu^2]hUT-Pep3: time to reach efficacy similar to hUII): pepducins 10^−5 M; for time of maximal ERK1/2 phosphorylation (for [Trp^1, Leu^2]hUT-Pep3: time to reach efficacy similar to hUII): hUII 10^−7 M
Description: Curves represent mean ± SEM of three independent kinetic experiments performed in triplicate.
CHO cells stably expressing hUT (CHO-hUT; gift from Drs H. Vaudry et C. Dubessy, University of Rouen, France) were grown in 12-well plates to 70–80% confluence and starved for 6 h in a serum-free medium. […] Briefly, HEK 293-hUT cells, grown in 12-well plates to 70–80% confluence, were starved for 6 h in a serum-free medium. […] Cells were then rinsed twice with ice-cold PBS and homogenized in 0.5 ml of lysis buffer (20 mM Tris, 150 mM NaCl, 1 mM EDTA, 1 mM EGTA, 1% Triton X-100, 2.5 mM sodium pyrophosphate, 1 mM β-glycerolphosphate, 1 mM Na3VO4, 1 μg mL^−1 leupeptin, 1 mM PMSF, 1 mM DTT) at 4 °C. Insoluble material was removed by centrifugation at 12,000 rpm for 30 min. The extract was treated with Laemmli sample buffer and heated for 5 min at 95 °C. Aliquots were assayed for protein concentration (BioRad) and an equal amount of total protein was subjected to 12% SDS–PAGE, followed by transfer to a nitrocellulose membrane. The membrane was blocked and then probed with primary antibody (phospho-p44/42 MAPK) at the optimal dilution (1/2000) with gentle agitation overnight at 4 °C. After washing with TTBS, membranes were then incubated with secondary antibody, conjugated with horseradish peroxidase (anti-rabbit HRP) diluted in TBST containing 5% skim milk (w/v) for 1 h at room temperature. Immunoreactive species were visualized by enhanced chemiluminescence using X-ray film and Thermo Scientific SuperSignal chemiluminescent substrates according to the manufacturer's instructions. Films were digitized and the intensity of the immunoreactive bands determined using Quantity One software from Bio-Rad.

[4] = target: T1, hUT; assay: Gi activation, BRET biosensor, HEK 293-hUT cells; design: expressed in transfected cells; conditions: for EC50: HEK 293-hUT, BRET, mean ± SEM, n = 3–5, read-out: Gi activation pEC50 (converted)

| Emax at 1 µM [1] [%] | Emax at 1 µM [4] [%] | SMILES | Emax [1] [%] | EC50 [1] [nM] | EC50 ([2]; 15 min at RT, mean ± SEM, n = 3–5, read-out: β-arrestin 1 pEC50 (converted)) [nM] | Emax ([2]; 15 min at RT, mean ± SEM) [%] | effect of YM254890 (Gq inhibitor) on ERK1/2 phosphorylation induced by the peptide [3] | duration of ERK1/2 activation in presence of YM254890 ([3]; YM254890 100 nM, 0-20 min) | time of maximal ERK1/2 phosphorylation (for [Trp^1, Leu^2]hUT-Pep3: time to reach efficacy similar to hUII) [3] [min] | Emax [4] [%] | EC50 [4] [nM] | β-arrestin 1 activation (in words) [2] |
| --- | --- | --- | --- | --- | --- | --- | --- | --- | --- | --- | --- | --- |
|  |  | CCCCCCCCCCCCCCCC(=O)N[C@@H](Cc1c[nH]c2ccccc12)C(=O)N[C@@H](CC(C)C)C(=O)N[C@@H](CO)C(=O)N[C@@H](CCC(N)=O)C(=O)N[C@@H](CCCNC(=N)N)C(=O)N[C@@H](C)C(=O)N[C@@H](CO)C(=O)N[C@@H](Cc1ccccc1)C(=O)N[C@@H](CCCCN)C(=O)N[C@@H](CCCNC(=N)N)C(=O)N[C@@H](C)C(=O)N[C@@H](CCCNC(=N)N)C(=O)N[C@@H](CCCNC(=N)N)C(N)=O [[Trp^1, Leu^2]hUT-Pep3] (Palmitoyl-WLSQRASFKRARR-NH2) | 185 ± 11 | 309 | 8.32 | ~18 | modest, but significant, inhibitory effect | this activation is maintained and did not decrease over the studied period of time | 10 | 97 ± 2 | 0.0407 |  |
| 106 ± 5 | 93 ± 2 | CC(C)[C@H](NC(=O)[C@@H]1CSSC[C@H](NC(=O)[C@H](CC(=O)O)NC(=O)[C@@H]2CCCN2C(=O)[C@@H](NC(=O)[C@@H](N)CCC(=O)O)[C@@H](C)O)C(=O)N[C@@H](Cc2ccccc2)C(=O)N[C@@H](Cc2c[nH]c3ccccc23)C(=O)N[C@@H](CCCCN)C(=O)N[C@@H](Cc2ccc(O)cc2)C(=O)N1)C(=O)O [hUII, urotensin II, reference compound] |  |  |  | 104 ± 4 |  |  | 5 |  |  |  |
|  |  | CCCCCCCCCCCCCCCC(=O)N[C@@H](CCCNC(=N)N)C(=O)N1CCC[C@H]1C(=O)N[C@@H](CC(C)C)C(=O)N[C@@H](CC(=O)O)C(=O)N[C@H](C(=O)N[C@H](C(=O)N[C@@H](CCC(N)=O)C(=O)N[C@@H](CCCNC(=N)N)C(=O)N1CCC[C@H]1C(=O)N[C@@H](CCCCN)C(=O)NCC(=O)N[C@@H](Cc1ccc(O)cc1)C(N)=O)C(C)C)[C@@H](C)O [hUT-Pep2] (Palmitoyl-RPLDTVQRPKGY-NH2) | 154 ± 10 | 468 |  |  | modest, but significant, inhibitory effect |  | 5 | 96 ± 2 | 0.0813 | inactive |
